How the values were obtained:
[1] = target: T1, metabotropic glutamate receptors mGluR2 (Rattus norvegicus, UniProt P31421); assay: Effects of test compounds on cAMP accumulation (antagonism of glutamic acid suppression of Forskolin-stimulated cAMP) in CHO cells expressing mGluR2; format: cell-based; conditions: CHO cells stably expressing mGluR2; 50% inhibition of suppression by 30 μM glutamic acid of cAMP increase by 10^-5 M Forskolin; cAMP EIA kit
T1 construct: expressed in transfected cells
Experimental: Experimental Example (Effects of Test Compounds on cAMP Accumulation)
CHO cells stably expressing metabotropic glutamate receptors mGluR2 were seeded in a 96-well plate in the ratio of 1.26×10^4 cells/well/0.32 cm^2/150 μl in Dalbeco-modified Eagle medium [1% proline, 50 units/ml penicillin, 50 μg/ml streptomycin, 2 mM L-glutamine (added when used)] containing 10% dialyzed fetal bovine serum, and were cultured for 2 days at 37° C. under an atmosphere of 5% CO2. Subsequently, the medium was replaced with an L-glutamine free medium. Four hours later, the supernatant liquid was aspirated. […] A study was carried out for the antagonistic effects of the test compounds on the Forskolin stimulation cAMP accumulation quantity suppression [for control, the conditions were set with no addition of the compounds (Tanabe et al., Neuron, 8, 169-179 (1992))]. The reactions were quenched by adding 100 μl of ice-cooled ethanol, the entire quantity of the supernatant liquid was collected in a separate plate, and was subsequently dried up at normal temperature with an evaporator, followed by preservation at −20° C. In the dried-up samples, the quantity of cAMP was measured using a cAMP EIA kit (from the Amasham company). The control value was subtracted from each cAMP quantity. […]

T1 sequence (P31421 19-872): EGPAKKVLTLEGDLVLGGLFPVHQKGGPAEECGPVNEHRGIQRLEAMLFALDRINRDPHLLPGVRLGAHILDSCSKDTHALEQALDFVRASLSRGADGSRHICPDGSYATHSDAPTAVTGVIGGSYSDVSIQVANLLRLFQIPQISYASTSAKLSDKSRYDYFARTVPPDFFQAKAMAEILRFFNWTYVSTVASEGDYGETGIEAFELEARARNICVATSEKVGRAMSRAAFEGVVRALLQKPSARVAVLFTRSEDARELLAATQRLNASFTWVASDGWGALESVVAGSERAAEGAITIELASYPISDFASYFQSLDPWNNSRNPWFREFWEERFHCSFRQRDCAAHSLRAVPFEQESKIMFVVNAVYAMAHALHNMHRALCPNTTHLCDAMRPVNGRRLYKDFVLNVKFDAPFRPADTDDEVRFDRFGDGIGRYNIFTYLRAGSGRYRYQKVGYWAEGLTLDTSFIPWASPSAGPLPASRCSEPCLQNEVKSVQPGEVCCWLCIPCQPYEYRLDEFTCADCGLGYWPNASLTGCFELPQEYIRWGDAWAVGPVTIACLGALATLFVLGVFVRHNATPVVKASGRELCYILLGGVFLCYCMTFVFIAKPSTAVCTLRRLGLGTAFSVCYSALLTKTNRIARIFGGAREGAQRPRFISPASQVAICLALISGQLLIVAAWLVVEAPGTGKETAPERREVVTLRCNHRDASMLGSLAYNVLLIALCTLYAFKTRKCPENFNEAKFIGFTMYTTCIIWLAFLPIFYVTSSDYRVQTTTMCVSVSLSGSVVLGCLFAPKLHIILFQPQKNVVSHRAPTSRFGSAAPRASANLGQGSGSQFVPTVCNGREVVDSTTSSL

**Q.** Which melting point does the source give for `N[C@@]1(C(=O)O)C=C[C@@H]2[C@H]1[C@@]2(F)C(=O)O` [Example 7, (1R,2S,5R,6R)-2-amino-6-fluoro-bicyclo[3.1.0]hex-3-ene-2,6-dicarboxylic acid] here?
**A.** > 174 °C (dec.)

**Q.** For `N[C@@]1(C(=O)O)[C@H](O)C[C@@H]2[C@H]1[C@@]2(F)C(=O)O` [Example 8, (1R,2R,3R,5R,6R)-2-amino-6-fluoro-3-hydroxy-bicyclo[3.1.0]hexane-2,6-dicarboxylic acid], which IC50 [1] is on record?
**A.** 476 nM

**Q.** What about the melting point of the same compound?
**A.** > 172 °C (dec.)

From patent US6770676B2, “Dicarboxylic acid derivatives” (Taisho Pharmaceutical Co., Ltd., priority 2000, dated 2004)
